According to article PMC5896373 (Molecular Pharmacology, 2018):
Residue numbers refer to the chain shown, from its start.

Assays:
[1] = tested on: chimeric P2X7/1 receptor 112–118; test: cell-based; type: cell-based, human; settings: chimera 112–118
Protocol: Additional point mutants were made using the QuikChange mutagenesis kit (Stratagene California, La Jolla, CA). The production of the correct mutations and absence of coding errors was determined by DNA sequencing (Automated ABI Sequencing Service, University of Leicester, UK). cRNA was generated for the mutants and 50 nl (50 ng) was injected into manually defoliculated stage V Xenopus laevis oocytes using an Inject+Matic microinjector (J.A. Gabay, Inject+Matic, Geneva, Switzerland). Injected oocytes were stored at 16°C in ND96 buffer [in millimolar concentrations, NaCl 96, KCl 2, CaCl2 1.8, MgCl2 1, sodium pyruvate 5, and HEPES 5 (pH 7.6) supplemented with 50 μg/ml gentamycin and 50 μg/ml tetracycline]. Three to seven days postinjection two-electrode voltage clamp recordings were made from oocytes bathed in divalent-free ND96 buffer (in millimolar concentrations, NaCl 96, KCl 2, sodium pyruvate 5, HEPES 5, and 0.1 flufenamic acid, pH 7.6). Oocytes were voltage clamped at a holding potential of −60 mV with a GeneClamp500B amplifier (Molecular Devices).
Inhibition by the antagonists was expressed as the percentage of the peak current amplitude of an EC90 concentration of ATP recorded before the application of antagonist (ATP gave reproducible responses to ATP in the absence of antagonist). Inhibition curves were fitted with the Hill equation (variable slope) using GraphPad Prism 6 (GraphPad Software, San Diego, CA). […] Individual concentration-response curves were generated for individual experiments, and statistical analysis was carried out on the data generated. […] Data are shown as mean ± S.E.M. In all cases n ≥ 3 for all data points.

P2X7R point mutant L97P = target: T1, P2X7R point mutant L97P (Homo sapiens, UniProt Q99572, I21V/L97P/M24R/N16P/N25R/Q22R/R20V/S23N/T19I/Y26L); test: cell-based
T1 construct: expressed in transfected cells; host or cells: Xenopus laevis oocytes (cRNA injection)
T1 sequence (Q99572 whole entry N16P/T19I/R20V/I21V/Q22R/S23N/M24R/N25R/Y26L/L97P): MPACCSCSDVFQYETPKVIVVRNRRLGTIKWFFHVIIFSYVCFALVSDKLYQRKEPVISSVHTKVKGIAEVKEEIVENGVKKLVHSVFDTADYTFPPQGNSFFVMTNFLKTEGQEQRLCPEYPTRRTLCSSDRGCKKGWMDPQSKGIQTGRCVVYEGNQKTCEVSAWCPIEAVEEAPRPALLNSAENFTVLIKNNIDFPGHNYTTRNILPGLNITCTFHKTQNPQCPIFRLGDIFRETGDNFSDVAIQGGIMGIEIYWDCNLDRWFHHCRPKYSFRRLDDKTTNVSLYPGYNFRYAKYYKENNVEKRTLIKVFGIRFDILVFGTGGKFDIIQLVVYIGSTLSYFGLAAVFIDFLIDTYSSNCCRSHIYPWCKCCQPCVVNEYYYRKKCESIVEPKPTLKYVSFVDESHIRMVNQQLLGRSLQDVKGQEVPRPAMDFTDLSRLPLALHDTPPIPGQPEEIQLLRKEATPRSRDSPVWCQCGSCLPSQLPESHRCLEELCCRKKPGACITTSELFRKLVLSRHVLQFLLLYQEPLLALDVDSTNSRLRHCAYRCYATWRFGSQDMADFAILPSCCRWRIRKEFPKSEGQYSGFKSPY
Protocol: The production of the correct mutations and absence of coding errors was determined by DNA sequencing (Automated ABI Sequencing Service, University of Leicester, UK). cRNA was generated for the mutants and 50 nl (50 ng) was injected into manually defoliculated stage V Xenopus laevis oocytes using an Inject+Matic microinjector (J.A. Gabay, Inject+Matic, Geneva, Switzerland). Injected oocytes were stored at 16°C in ND96 buffer [in millimolar concentrations, NaCl 96, KCl 2, CaCl2 1.8, MgCl2 1, sodium pyruvate 5, and HEPES 5 (pH 7.6) supplemented with 50 μg/ml gentamycin and 50 μg/ml tetracycline]. Three to seven days postinjection two-electrode voltage clamp recordings were made from oocytes bathed in divalent-free ND96 buffer (in millimolar concentrations, NaCl 96, KCl 2, sodium pyruvate 5, HEPES 5, and 0.1 flufenamic acid, pH 7.6). Oocytes were voltage clamped at a holding potential of −60 mV with a GeneClamp500B amplifier (Molecular Devices).
Inhibition by the antagonists was expressed as the percentage of the peak current amplitude of an EC90 concentration of ATP recorded before the application of antagonist (ATP gave reproducible responses to ATP in the absence of antagonist). Inhibition curves were fitted with the Hill equation (variable slope) using GraphPad Prism 6 (GraphPad Software, San Diego, CA). […]

[2] = tested on: P2X7R left flipper point mutant K281A; test: Two-electrode voltage clamp of ATP-evoked currents in Xenopus oocytes; type: cell-based, human
Protocol: (§1) Injected oocytes were stored at 16°C in ND96 buffer [in millimolar concentrations, NaCl 96, KCl 2, CaCl2 1.8, MgCl2 1, sodium pyruvate 5, and HEPES 5 (pH 7.6) supplemented with 50 μg/ml gentamycin and 50 μg/ml tetracycline]. Three to seven days postinjection two-electrode voltage clamp recordings were made from oocytes bathed in divalent-free ND96 buffer (in millimolar concentrations, NaCl 96, KCl 2, sodium pyruvate 5, HEPES 5, and 0.1 flufenamic acid, pH 7.6). Oocytes were voltage clamped at a holding potential of −60 mV with a GeneClamp500B amplifier (Molecular Devices).
(§2) Electrophysiological traces were digitized with a Digidata 1322A and collected using pCLAMP 8.2 software (Molecular Devices, Menlo Park, CA). An EC90 concentration of ATP was used to test antagonist sensitivity for the P2X7-2Nβ and mutant receptors [ATP sensitivity of the chimeras and mutants are reported in [Allsopp et al. (2017)]] to standardize for any changes in ATP sensitivity.
(§3) Inhibition by the antagonists was expressed as the percentage of the peak current amplitude of an EC90 concentration of ATP recorded before the application of antagonist (ATP gave reproducible responses to ATP in the absence of antagonist). […] Any significant differences from the P2X7-2Nβ control were calculated by one-way analysis of variance, followed by Dunnett’s test (using GraphPad Prism 6). […]

[3] = tested on: P2X7R left flipper point mutant T283A; test: as above; type: cell-based, human
Protocol: as §1, §2, §3

[4] = target: T2, chimeric P2X7/1 receptor 89–94 (Homo sapiens, UniProt Q99572, I21V/M24R/N16P/N25R/Q22R/R20V/S23N/T19I/T90V/T94V/Y26L); set-up: method as in Allsopp et al., 2017; settings: chimera 89–94; ref Allsopp et al., 2017; cited from earlier work
T2 construct: expressed in transfected cells; host or cells: Xenopus laevis oocytes (cRNA injection)
T2 sequence (Q99572 1-595 N16P/T19I/R20V/I21V/Q22R/S23N/M24R/N25R/Y26L/T90V/T94V): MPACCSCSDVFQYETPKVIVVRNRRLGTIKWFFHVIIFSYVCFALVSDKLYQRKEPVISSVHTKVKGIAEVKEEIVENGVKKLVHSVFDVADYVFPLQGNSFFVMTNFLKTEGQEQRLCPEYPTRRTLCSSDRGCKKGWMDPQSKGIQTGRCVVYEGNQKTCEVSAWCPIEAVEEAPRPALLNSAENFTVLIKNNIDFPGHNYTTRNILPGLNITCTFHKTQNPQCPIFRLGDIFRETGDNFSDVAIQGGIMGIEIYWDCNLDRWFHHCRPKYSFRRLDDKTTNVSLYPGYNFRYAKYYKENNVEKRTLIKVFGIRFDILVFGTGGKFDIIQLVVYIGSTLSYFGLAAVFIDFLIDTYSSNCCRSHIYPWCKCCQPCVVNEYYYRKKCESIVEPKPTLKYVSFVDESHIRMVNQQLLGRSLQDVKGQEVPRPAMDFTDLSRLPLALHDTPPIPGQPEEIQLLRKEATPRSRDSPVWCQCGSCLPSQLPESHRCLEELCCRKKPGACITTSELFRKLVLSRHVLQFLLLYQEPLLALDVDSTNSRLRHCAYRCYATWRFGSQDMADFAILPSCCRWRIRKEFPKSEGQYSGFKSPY

[5] = target: T3, chimeric P2X7/1 receptor 279–285 (left flipper) (Homo sapiens, UniProt Q99572, DEL279-281/I21V/M24R/N16P/N25R/N284E/Q22R/R20V/S23N/T19I/T282Y/T283E/V285K/Y26L); set-up: method as in Allsopp et al., 2017; settings: chimera 279–285; ref Allsopp et al., 2017; cited from earlier work
T3 construct: expressed in transfected cells; host or cells: Xenopus laevis oocytes (cRNA injection)
T3 sequence (Q99572 with tags, fused parts or gaps N16P/T19I/R20V/I21V/Q22R/S23N/M24R/N25R/Y26L/DEL279-281/T282Y/T283E/N284E/V285K): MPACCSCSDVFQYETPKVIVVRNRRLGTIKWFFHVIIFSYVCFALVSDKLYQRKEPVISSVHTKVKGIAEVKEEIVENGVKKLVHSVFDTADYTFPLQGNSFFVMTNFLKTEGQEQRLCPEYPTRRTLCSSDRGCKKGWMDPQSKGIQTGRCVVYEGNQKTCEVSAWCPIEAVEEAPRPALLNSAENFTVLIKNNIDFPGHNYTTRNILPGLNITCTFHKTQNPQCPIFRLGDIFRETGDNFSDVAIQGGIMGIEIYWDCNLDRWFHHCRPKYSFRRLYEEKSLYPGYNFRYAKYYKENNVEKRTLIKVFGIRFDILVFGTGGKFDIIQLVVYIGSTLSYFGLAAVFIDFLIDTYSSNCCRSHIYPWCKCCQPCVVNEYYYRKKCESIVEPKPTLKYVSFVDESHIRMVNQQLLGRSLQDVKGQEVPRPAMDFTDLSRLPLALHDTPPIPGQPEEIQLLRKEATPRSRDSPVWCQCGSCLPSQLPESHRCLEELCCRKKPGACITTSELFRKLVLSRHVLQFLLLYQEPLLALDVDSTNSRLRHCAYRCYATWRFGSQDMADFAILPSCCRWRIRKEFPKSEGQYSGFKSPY

P2X7R point mutant K110Y = target: T4, P2X7R point mutant K110Y (Homo sapiens, UniProt Q99572, I21V/K110Y/M24R/N16P/N25R/Q22R/R20V/S23N/T19I/Y26L); set-up: method as in Allsopp et al., 2017; settings: ref Allsopp et al., 2017; cited from earlier work
T4 construct: expressed in transfected cells; host or cells: Xenopus laevis oocytes (cRNA injection)
T4 sequence (Q99572 1-595 N16P/T19I/R20V/I21V/Q22R/S23N/M24R/N25R/Y26L/K110Y): T2 sequence (Q99572 1-595 N16P/T19I/R20V/I21V/Q22R/S23N/M24R/N25R/Y26L/T90V/T94V) with V90T, V94T, K110Y

SMILES	fold decrease in antagonist sensitivity relative to P2X7-2Nβ [1] [fold]	IC50 (P2X7R point mutant L97P) [nM]	fold decrease in antagonist sensitivity relative to P2X7-2Nβ [2] [fold]	fold decrease in antagonist sensitivity/affinity relative to P2X7-2Nβ [3] [fold]	fold decrease in antagonist affinity [4] [fold]	effect on antagonist sensitivity [5]	effect on antagonist sensitivity (P2X7R point mutant K110Y)
COc1ccc(CC(=O)NC(N=C(NC#N)Nc2cccc3ncccc23)C(C)(C)C)cc1OC (stereo not shown) [A740003, N-[1-[[(cyanoamino)(5-quinolinylamino)methylene]amino]-2,2-dimethylpropyl]-3,4-dimethoxybenzeneacetamide]	~3	398	~4	~4	–	–	–
Cl.Cl.O=C(CC12CC3CC(CC(C3)C1)C2)Nc1cccc2nc(NCCNCCO)ccc12 [AZ10606120, N-[2-[[2-[(2-hydroxyethyl)amino]ethyl]amino]-5-quinolinyl]-2-tricyclo[3.3.1.13,7]dec-1-ylacetamide dihydrochloride]	–	–	–	–	> 300	no effect	increased
